Data taken from publication PMC8545137, “Cryoelectron Microscopy Structures of AdeB Illuminate Mechanisms of Simultaneous Binding and Exporting of Substrates” (mBio, 2021).

Legend:
[1] = molecular target: T1, AdeB multidrug efflux pump (Acinetobacter baumannii, UniProt Q2FD70); experiment: fluorescence polarization titration with purified AdeB; format: binding; set-up: full-length
CusB (Escherichia coli) = CusB (Escherichia coli) (UniProt P77239); experiment: ITC; conditions: cited from earlier work
[2] = molecular target: Acinetobacter baumannii AdeB multidrug efflux pump (Acinetobacter baumannii (AB0057)); experiment: cryo-EM structure; AdeB in lipidic nanodiscs (MSP 1E3D1, E. coli total extract lipid; 20 mM Tris-HCl pH 7.5, 100 mM NaCl); 2 uM AdeB-nanodisc incubated with 20 uM ethidium bromide for 2 h; six conformational classes (three apo, three Et-bound) sorted from one sample
[3] = molecular target: T1, AdeB multidrug efflux pump; experiment: fluorescence polarization Kd with purified AdeB; cryo-EM structures in lipidic nanodiscs (7KGG, 7KGH, 7KGI); format: binding; set-up: full-length; homotrimer

CusA, sequence (P38054 whole entry): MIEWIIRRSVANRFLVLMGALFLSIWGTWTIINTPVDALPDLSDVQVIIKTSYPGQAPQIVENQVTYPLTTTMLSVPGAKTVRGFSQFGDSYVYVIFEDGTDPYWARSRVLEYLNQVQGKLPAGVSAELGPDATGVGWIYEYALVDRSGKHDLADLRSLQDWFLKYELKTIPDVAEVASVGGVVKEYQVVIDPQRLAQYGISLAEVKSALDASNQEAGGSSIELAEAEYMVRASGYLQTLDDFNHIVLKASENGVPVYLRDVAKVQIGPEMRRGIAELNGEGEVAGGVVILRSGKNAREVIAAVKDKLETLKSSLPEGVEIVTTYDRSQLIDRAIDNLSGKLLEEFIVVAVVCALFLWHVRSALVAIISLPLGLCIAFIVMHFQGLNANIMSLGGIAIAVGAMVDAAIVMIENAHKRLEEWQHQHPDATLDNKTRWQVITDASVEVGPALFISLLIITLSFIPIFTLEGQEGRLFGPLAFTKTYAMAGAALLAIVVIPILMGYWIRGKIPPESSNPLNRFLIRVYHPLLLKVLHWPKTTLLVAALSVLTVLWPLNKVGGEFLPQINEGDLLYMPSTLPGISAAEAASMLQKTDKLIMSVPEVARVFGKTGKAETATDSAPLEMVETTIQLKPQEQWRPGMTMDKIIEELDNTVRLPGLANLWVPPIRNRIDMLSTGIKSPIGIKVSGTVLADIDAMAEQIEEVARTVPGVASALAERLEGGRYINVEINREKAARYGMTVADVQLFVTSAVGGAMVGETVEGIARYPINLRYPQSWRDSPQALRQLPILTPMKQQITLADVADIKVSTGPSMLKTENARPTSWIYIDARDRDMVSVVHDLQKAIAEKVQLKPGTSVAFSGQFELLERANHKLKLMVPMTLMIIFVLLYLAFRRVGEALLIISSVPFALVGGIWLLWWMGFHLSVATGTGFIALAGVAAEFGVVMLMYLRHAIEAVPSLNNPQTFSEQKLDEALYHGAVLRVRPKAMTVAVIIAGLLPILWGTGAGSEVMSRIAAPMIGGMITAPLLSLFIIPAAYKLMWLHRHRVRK

In the case of `CC/N=c1\cc2oc3cc(NCC)c(C)cc3c(-c3ccccc3C(=O)OCC)c-2cc1C` [R6G, rhodamine 6G], the Kd [1] is reported as 3.1 ± 0.1 µM.
In the case of CusA (from UniProt P38054), the Kd (CusB (Escherichia coli)) is given as 5.1 µM.
“Acinetobacter baumannii AdeB multidrug efflux pump (natural protein)” showed a stoichiometry N [2] of 3.
With `CC[n+]1c(-c2ccccc2)c2cc(N)ccc2c2ccc(N)cc21` [Et, ethidium bromide] the Kd [3] was 2.5 ± 0.1 µM.
